{
  "source": "PubChem BioAssay AID1963976",
  "about": "(Molecular Pharmacology Branch, DTP, NCI, 2024)",
  "tested_on": "435261-313-R-J1-PDC tumor spheroid viability",
  "experiment": "Anticancer human tumor 435261-313-R-J1-PDC patient-derived colon adenocarcinoma cell line growth inhibition [PI3K]",
  "conditions": "spheroids with HUVEC and MSC; for pIC50: curve of first compound; for viability, T/C: stronger effect = lower value",
  "summary_of_the_method": "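Tumor cells were combined with HUVEC and MSCs into spheroids, then dosed with PI3K-inhibitor combinations over half-log ranges capped near clinical Cmax or 10 microM.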",
  "key": {"[1]": {"conditions": "second compound 0.0316 µM, first compound 0.0316 µM"}, "[2]": {"conditions": "second compound 0.0316 µM, first compound 0.1 µM"}, "[3]": {"conditions": "second compound 0.0316 µM, first compound 0.316 µM"}, "[4]": {"conditions": "second compound 0.0316 µM, first compound 1 µM"}, "[5]": {"conditions": "second compound 0.1 µM, first compound 0.0316 µM"}, "[6]": {"conditions": "second compound 0.1 µM, first compound 0.1 µM"}, "[7]": {"conditions": "second compound 0.1 µM, first compound 0.316 µM"}, "[8]": {"conditions": "second compound 0.1 µM, first compound 1 µM"}, "[9]": {"conditions": "second compound 0.316 µM, first compound 0.0316 µM"}, "[10]": {"conditions": "second compound 0.316 µM, first compound 0.1 µM"}, "[11]": {"conditions": "second compound 0.316 µM, first compound 0.316 µM"}, "[12]": {"conditions": "second compound 0.316 µM, first compound 1 µM"}, "[13]": {"conditions": "second compound 1 µM, first compound 0.0316 µM"}, "[14]": {"conditions": "second compound 1 µM, first compound 0.1 µM"}, "[15]": {"conditions": "second compound 1 µM, first compound 0.316 µM"}, "[16]": {"conditions": "second compound 1 µM, first compound 1 µM"}},
  "note": "pIC50: −log10 of the molar value.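 Further: spheroids exposed to compounds for 7 days.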",
  "data": [
    {"smiles": "CC1(C)CCC(CN2CCN(c3ccc(C(=O)NS(=O)(=O)c4ccc(NCC5CCOCC5)c([N+](=O)[O-])c4)c(Oc4cnc5[nH]ccc5c4)c3)CC2)=C(c2ccc(Cl)cc2)C1", "note": "+ CC(Nc1ncnc2nc[nH]c12)c1cc2cccc(Cl)c2c(=O)n1-c1ccccc1", "values": [
      {"measurement": "pIC50", "setting": "second compound 0.0316 µM", "value": "< 5.00"},
      {"measurement": "pIC50", "setting": "second compound 0.1 µM", "value": "< 5.00"},
      {"measurement": "pIC50", "setting": "second compound 0.316 µM", "value": "< 5.00"},
      {"measurement": "pIC50", "setting": "second compound 1 µM", "value": "< 5.00"},
      {"measurement": "pIC50", "setting": "second compound 3.16 µM", "value": "< 5.00"},
      {"measurement": "pIC50", "setting": "second compound 10 µM", "value": "> 7.50"},
      {"measurement": "viability, T/C", "setting": "[1]", "value": 79.5, "unit": "%"},
      {"measurement": "viability, T/C", "setting": "[2]", "value": 92, "unit": "%"},
      {"measurement": "viability, T/C", "setting": "[3]", "value": 71.5, "unit": "%"},
      {"measurement": "viability, T/C", "setting": "[4]", "value": 80, "unit": "%"},
      {"measurement": "viability, T/C", "setting": "second compound 0.0316 µM, first compound 3.16 µM", "value": 86.9, "unit": "%"},
      {"measurement": "viability, T/C", "setting": "second compound 0.0316 µM, first compound 10 µM", "value": 95, "unit": "%"},
      {"measurement": "viability, T/C", "setting": "[5]", "value": 66.1, "unit": "%"},
      {"measurement": "viability, T/C", "setting": "[6]", "value": 78.2, "unit": "%"},
      {"measurement": "viability, T/C", "setting": "[7]", "value": 81.3, "unit": "%"},
      {"measurement": "viability, T/C", "setting": "[8]", "value": 71.6, "unit": "%"},
      {"measurement": "viability, T/C", "setting": "second compound 0.1 µM, first compound 3.16 µM", "value": 94.5, "unit": "%"},
      {"measurement": "viability, T/C", "setting": "second compound 0.1 µM, first compound 10 µM", "value": 84.9, "unit": "%"},
      {"measurement": "viability, T/C", "setting": "[9]", "value": 77.5, "unit": "%"},
      {"measurement": "viability, T/C", "setting": "[10]", "value": 100, "unit": "%"},
      {"measurement": "viability, T/C", "setting": "[11]", "value": 87.2, "unit": "%"},
      {"measurement": "viability, T/C", "setting": "[12]", "value": 77.3, "unit": "%"},
      {"measurement": "viability, T/C", "setting": "second compound 0.316 µM, first compound 3.16 µM", "value": 77.4, "unit": "%"},
      {"measurement": "viability, T/C", "setting": "second compound 0.316 µM, first compound 10 µM", "value": 52.2, "unit": "%"},
      {"measurement": "viability, T/C", "setting": "[13]", "value": 87.6, "unit": "%"},
      {"measurement": "viability, T/C", "setting": "[14]", "value": 66.1, "unit": "%"},
      {"measurement": "viability, T/C", "setting": "[15]", "value": 66.4, "unit": "%"},
      {"measurement": "viability, T/C", "setting": "[16]", "value": 64, "unit": "%"},
      {"measurement": "viability, T/C", "setting": "second compound 1 µM, first compound 3.16 µM", "value": 73.2, "unit": "%"},
      {"measurement": "viability, T/C", "setting": "second compound 1 µM, first compound 10 µM", "value": 46.6, "unit": "%"},
      {"measurement": "viability, T/C", "setting": "second compound 3.16 µM, first compound 0.0316 µM", "value": 65.3, "unit": "%"},
      {"measurement": "viability, T/C", "setting": "second compound 3.16 µM, first compound 0.1 µM", "value": 72.6, "unit": "%"},
      {"measurement": "viability, T/C", "setting": "second compound 3.16 µM, first compound 0.316 µM", "value": 87.2, "unit": "%"},
      {"measurement": "viability, T/C", "setting": "second compound 3.16 µM, first compound 1 µM", "value": 72.3, "unit": "%"},
      {"measurement": "viability, T/C", "setting": "second compound 3.16 µM, first compound 3.16 µM", "value": 77, "unit": "%"},
      {"measurement": "viability, T/C", "setting": "second compound 3.16 µM, first compound 10 µM", "value": 76.7, "unit": "%"},
      {"measurement": "viability, T/C", "setting": "second compound 10 µM, first compound 0.0316 µM", "value": 41.6, "unit": "%"},
      {"measurement": "viability, T/C", "setting": "second compound 10 µM, first compound 0.1 µM", "value": 60.8, "unit": "%"},
      {"measurement": "viability, T/C", "setting": "second compound 10 µM, first compound 0.316 µM", "value": 32.7, "unit": "%"},
      {"measurement": "viability, T/C", "setting": "second compound 10 µM, first compound 1 µM", "value": 62.9, "unit": "%"},
      {"measurement": "viability, T/C", "setting": "second compound 10 µM, first compound 3.16 µM", "value": 50.3, "unit": "%"},
      {"measurement": "viability, T/C", "setting": "second compound 10 µM, first compound 10 µM", "value": 43.9, "unit": "%"}
    ]},
    {"smiles": "CCN1CCN(Cc2ccc(Nc3ncc(F)c(-c4cc(F)c5nc(C)n(C(C)C)c5c4)n3)nc2)CC1", "note": "+ COc1c(OCCCN2CCOCC2)ccc2c3n(c(=NC(=O)c4cnc(N)nc4)nc12)CCN3", "values": [
      {"measurement": "pIC50", "setting": "second compound 0.00316 µM", "value": 7.28},
      {"measurement": "pIC50", "setting": "second compound 0.01 µM", "value": "> 8.50"},
      {"measurement": "pIC50", "setting": "second compound 0.0316 µM", "value": "> 8.50"},
      {"measurement": "pIC50", "setting": "second compound 0.1 µM", "value": "> 8.50"},
      {"measurement": "pIC50", "setting": "second compound 0.316 µM", "value": "> 8.50"},
      {"measurement": "pIC50", "setting": "second compound 1 µM", "value": "> 8.50"},
      {"measurement": "viability, T/C", "setting": "second compound 0.00316 µM, first compound 0.00316 µM", "value": 49.3, "unit": "%"},
      {"measurement": "viability, T/C", "setting": "second compound 0.00316 µM, first compound 0.01 µM", "value": 57.2, "unit": "%"},
      {"measurement": "viability, T/C", "setting": "second compound 0.00316 µM, first compound 0.0316 µM", "value": 65.2, "unit": "%"},
      {"measurement": "viability, T/C", "setting": "second compound 0.00316 µM, first compound 0.1 µM", "value": 35.8, "unit": "%"},
      {"measurement": "viability, T/C", "setting": "second compound 0.00316 µM, first compound 0.316 µM", "value": 40.6, "unit": "%"},
      {"measurement": "viability, T/C", "setting": "second compound 0.00316 µM, first compound 1 µM", "value": 46.6, "unit": "%"},
      {"measurement": "viability, T/C", "setting": "second compound 0.01 µM, first compound 0.00316 µM", "value": 42.3, "unit": "%"},
      {"measurement": "viability, T/C", "setting": "second compound 0.01 µM, first compound 0.01 µM", "value": 39.8, "unit": "%"},
      {"measurement": "viability, T/C", "setting": "second compound 0.01 µM, first compound 0.0316 µM", "value": 35.4, "unit": "%"},
      {"measurement": "viability, T/C", "setting": "second compound 0.01 µM, first compound 0.1 µM", "value": 33, "unit": "%"},
      {"measurement": "viability, T/C", "setting": "second compound 0.01 µM, first compound 0.316 µM", "value": 32.7, "unit": "%"},
      {"measurement": "viability, T/C", "setting": "second compound 0.01 µM, first compound 1 µM", "value": 42.5, "unit": "%"},
      {"measurement": "viability, T/C", "setting": "second compound 0.0316 µM, first compound 0.00316 µM", "value": 28.9, "unit": "%"},
      {"measurement": "viability, T/C", "setting": "second compound 0.0316 µM, first compound 0.01 µM", "value": 22.6, "unit": "%"},
      {"measurement": "viability, T/C", "setting": "[1]", "value": 24.1, "unit": "%"},
      {"measurement": "viability, T/C", "setting": "[2]", "value": 23.3, "unit": "%"},
      {"measurement": "viability, T/C", "setting": "[3]", "value": 26.6, "unit": "%"},
      {"measurement": "viability, T/C", "setting": "[4]", "value": 25.2, "unit": "%"},
      {"measurement": "viability, T/C", "setting": "second compound 0.1 µM, first compound 0.00316 µM", "value": 15.2, "unit": "%"},
      {"measurement": "viability, T/C", "setting": "second compound 0.1 µM, first compound 0.01 µM", "value": 15.4, "unit": "%"},
      {"measurement": "viability, T/C", "setting": "[5]", "value": 18.1, "unit": "%"},
      {"measurement": "viability, T/C", "setting": "[6]", "value": 13.7, "unit": "%"},
      {"measurement": "viability, T/C", "setting": "[7]", "value": 15.6, "unit": "%"},
      {"measurement": "viability, T/C", "setting": "[8]", "value": 16.7, "unit": "%"},
      {"measurement": "viability, T/C", "setting": "second compound 0.316 µM, first compound 0.00316 µM", "value": 8.47, "unit": "%"},
      {"measurement": "viability, T/C", "setting": "second compound 0.316 µM, first compound 0.01 µM", "value": 8.29, "unit": "%"},
      {"measurement": "viability, T/C", "setting": "[9]", "value": 8.24, "unit": "%"},
      {"measurement": "viability, T/C", "setting": "[10]", "value": 6.93, "unit": "%"},
      {"measurement": "viability, T/C", "setting": "[11]", "value": 8.43, "unit": "%"},
      {"measurement": "viability, T/C", "setting": "[12]", "value": 9.13, "unit": "%"},
      {"measurement": "viability, T/C", "setting": "second compound 1 µM, first compound 0.00316 µM", "value": 4.09, "unit": "%"},
      {"measurement": "viability, T/C", "setting": "second compound 1 µM, first compound 0.01 µM", "value": 3.66, "unit": "%"},
      {"measurement": "viability, T/C", "setting": "[13]", "value": 3.83, "unit": "%"},
      {"measurement": "viability, T/C", "setting": "[14]", "value": 2.75, "unit": "%"},
      {"measurement": "viability, T/C", "setting": "[15]", "value": 3.7, "unit": "%"},
      {"measurement": "viability, T/C", "setting": "[16]", "value": 3.49, "unit": "%"}
    ]}
  ]
}
